In paper PMC8849047, “Salicylate metal-binding isosteres as fragments for metalloenzyme inhibition” (Chemical Science, 2022):
Where two headings read alike, the source gives them in different places.

Key:
[1] = molecular target: T1, Recombinant human glyoxalase I (GLO1) (Homo sapiens, UniProt Q04760); assay: GLO1 enzyme inhibition assay (absorbance at 240 nm); format: biochemical; conditions: for inhibition at 100 µM: read-out: %inhib GLO1; for IC50: dose-response curves, read-out: IC50 against GLO1
T1 construct: purchased R&D Systems 4959-GL
T1 sequence (Q04760 2-184 limits assumed): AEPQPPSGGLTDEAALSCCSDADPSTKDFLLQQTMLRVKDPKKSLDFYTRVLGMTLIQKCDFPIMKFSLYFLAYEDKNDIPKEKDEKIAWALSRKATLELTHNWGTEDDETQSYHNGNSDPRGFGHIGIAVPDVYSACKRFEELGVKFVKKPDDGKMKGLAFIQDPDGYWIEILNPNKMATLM
Description: To evaluate if the salicylate MBIs could serve as starting points for future FBDD campaigns, the MBI library was screened for inhibitory activity against human glyoxalase I (GLO1) at fragment concentrations of 100 μM (Table 2). […] Recombinant human glyoxalase I (GLO1) was purchased from R&D Systems (catalog #4959-GL). Assays were carried out in 0.1 M sodium phosphate, pH 7.0 buffer, utilizing 96-well clear UV plates (Corning UV Transparent Microplates, catalog #3635). A fresh solution of GSH (100 mM) and methylglyoxal (MG) (100 mM) was prepared in Millipore grade water. […] The substrate mixture was vortexed vigorously for 45 s and then allowed to sit at room temperature for 15 min. The initial well volume was 50 μL containing GLO1 (40 ng) and inhibitor. This protein and inhibitor mixture was incubated for 15–20 min prior to addition of the substrate. […] The enzyme activity was measured utilizing a Biotek Synergy HT or H4 plate reader by measuring absorbance at 240 nm every 1 min for a duration of 8 min. The rate of absorbance increase was compared for samples versus controls containing no inhibitor (set at 100% activity). The absorbance reading for background wells containing DMSO, buffer, and substrate (no enzyme or inhibitor) was subtracted from the experimental wells. […] Dose-response curves were generated, analysed and fitted to obtain IC50 values (see ESI ^†).
5. Single Point screening
Single point screening of salicylate MBI library against GLO1 at 100 µM inhibitor concentration. Chugai 1 (4,6-diphenyl-N-hydroxypyridone) 4 as positive control. […]
6. Dose-response curves against GLO1
The raw data from the GLO1 assay was background corrected and normalized from 0 to 100 with 100 being the largest mean of each dataset. A variable slope log-logistic model was chosen for curve fitting.
The corresponding datapoints are shown as empty bullets and were not included in the curve-fitting. The resulting restricted datasets were fitted according to a literature procedure setting the lower limit of the dose-response curve to zero. This compensates for the loss of information caused by trimming of the dataset. 5,6
Figure S7. Dose-response curve of 11 against GLO1.

[2] = molecular target: T2, Human recombinant MMP-3 catalytic domain (Homo sapiens, UniProt P08254); assay: MMP-3 enzyme inhibition assay (chromogenic substrate, 412 nm); format: biochemical; conditions: standard deviation in parentheses, read-out: %inhib MMP-3
T2 construct: Human recombinant MMP-3 catalytic domain was purchased; purchased ENZO Life Sciences BML-SE109-9090
T2 sequence (P08254 100-272 limits assumed): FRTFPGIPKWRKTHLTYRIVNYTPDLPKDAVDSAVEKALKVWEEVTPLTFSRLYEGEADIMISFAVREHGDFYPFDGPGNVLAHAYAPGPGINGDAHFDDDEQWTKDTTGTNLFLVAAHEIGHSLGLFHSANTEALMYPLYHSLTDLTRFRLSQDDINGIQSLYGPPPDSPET
Description: To probe the selectivity of the salicylate MBIs, the library was screened against matrix metalloproteinase-3 (MMP-3) at fragment concentrations of 100 μM (Table 2).
Human recombinant MMP-3 catalytic domain was purchased from ENZO Life Sciences (catalog # BML-SE109-9090). Assays were carried out in clear Costar 96-well, half-area, flat-bottom assay plates (catalog # 80-2404). Each well contained a total volume of 100 μL including buffer (50 mM MES, 10 mM CaCl2, 0.05% Brij-35, 1 mM DNTB, pH 6.0), MMP-3 (2 U), and the fragment solution. After a 30 min incubation period at 37 °C, the reaction was initiated by the addition of 10 μL of chromogenic MMP-3 substrate (100 μM final concentration, Ac-Pro-Leu-Gly-[2-mercap-to-4-methyl-pentanoyl]-Leu-Gly-OC2H5, ENZO Life Sciences, catalog #BML-P125-0005). Absorbance was monitored at 412 nm using a Bio-Tek ELx 808 colorimetric plate reader, and measurements were recorded every minute for 10 min. The rate of absorbance increase was compared for samples versus negative controls (no inhibitor, arbitrarily set as 100% activity).
5. Single Point screening […]
Figure S5. Single point screening of salicylate MBI library against MMP-3 at 100 µM inhibitor
concentration. NNGH as positive control.

[3] = log P by potentiometric titration octanol/water (Sirius T3); log D7.4 calculated from pKa and log P; format: physicochemical; conditions: for logD: pH 7.4
Description: In addition to gaining an understanding about the metal coordinating properties of the salicylate MBIs by using [(Tp^Ph,Me)Zn(MBI)] model complexes, the physicochemical properties of the MBIs were also studied. The acidity (pKa) and lipophilicity (log P) were measured using potentiometric methods and the lipophilicity at physiological pH (log D7.4) was calculated from these two values (Table 1).[23–25]
(§1) Physicochemical properties were determined using a Sirius T3 instrument.[23–25] […] The pKa of a compound was determined by analysing each MBI sample in triplicate using potentiometric titrations. Experiments were typically performed over a pH range of 2.0–12.0. Standard deviations were derived from fitting all three replicate experiments. For water insoluble compounds methanol was added and the obtained apparent pKa (psKa) was extrapolated to the aqueous pKa by the Yasuda–Shedlovsky procedure. log P was determined via potentiometric titrations in the presence of varying ratios of octanol and water. The presence of octanol shifts the pKa of ionizable species, and based on the shifts, a log P can be determined. Measurements for log P determination were typically performed over a pH range of 2.0–12.0. Three experiments with varying ratios of water:octanol was performed, allowing for a standard deviation to be determined from the fitting of all measurements. MBI sample sizes were ∼0.5 mg for both pKa and log P measurements.

[4] = pKa by potentiometric titration (Sirius T3); format: physicochemical
Description: In addition to gaining an understanding about the metal coordinating properties of the salicylate MBIs by using [(Tp^Ph,Me)Zn(MBI)] model complexes, the physicochemical properties of the MBIs were also studied.
as §1

[5] = tested on: influenza H1N1 N-terminal PA endonuclease (PAN); assay: PAN endonuclease inhibition assay (fluorescent ssDNA-oligo substrate); format: biochemical; conditions: 100 μM; standard deviation in parentheses
[6] = 100 μM, standard deviation in parentheses
[7] = calculated from measured pKa and log P, read-out: log D7.4
[8] = potentiometric, octanol/water, read-out: log P
[9] = potentiometric, 0.15 M KCl, triplicate, read-out: pKa (pKa,1)

Compound	inhibition at 100 µM [1, 6] [%]	inhibition at 100 µM [2] [%]	logP [3]	logD [3]	pKa ([4]; pKa)	pKa ([4]; pKa (pKa,1))	%inhib Endo (PAN) [5]	other results
O=c1cc(-c2ccccc2)cc(-c2ccccc2)n1O [1-hydroxy-4,6-diphenylpyridin-2(1H)-one, reference compound]	–	–	–	–	–	–	–	GLO1 inhibition by positive control ([1]; 50 μM): complete inhibition
CS(=O)(=O)Nc1ccccc1C(=O)O [Compound 2]	18	11	1.39	-2.97	10.8	3.04	1 (9) %	–
O=C(O)c1cccc2oc(=O)[nH]c12 [Compound 3]	29	0	1.28	-2.47	10.3	3.65	11 (7) %	–
O=C(O)c1cccc2nc[nH]c12 [Compound 4]	38	3	-1.4	-2.09	5.49	3.04	0%	pKa ([4]; pKa (third printed value)): 12.8
O=C(O)c1cccc2nn[nH]c12 [Compound 5]	20	0	1.38	-2.37	9.29	3.49	22 (7) %	–
COC(=O)c1ccccc1O [Compound 6]	10	0	2.19	2.19	–	9.8	21 (6) %	–
CONC(=O)c1ccccc1O [Compound 7]	22	0	0.85	0.49	12	7.23	46 (8) %	–
Oc1ccccc1-c1nnn[nH]1 [Compound 8]	24	6	1.54	-0.46	10.9	4.63	–	–
Oc1ccccc1C1(O)COC1 [Compound 9]	9	0	0.43	0.42	–	9.38	17 (9) %	–
Oc1ccccc1-c1ncccn1 [Compound 10]	15	0	–	–	–	–	–	–
Oc1ccc(-c2ccccc2)cc1-c1nc2ccccc2s1 [Compound 11a]	–	–	–	–	–	–	–	IC50 [1]: 5 ± 1.5 µM
Cc1cccc(-c2ccc(O)c(-c3nc4ccccc4s3)c2)c1 [Compound 11b]	–	–	–	–	–	–	–	IC50 [1]: 6.8 ± 1.4 µM
Oc1ccc(-c2cccc(Cl)c2)cc1-c1nc2ccccc2s1 [Compound 11c]	–	–	–	–	–	–	–	IC50 [1]: 3.3 ± 0.7 µM
Oc1ccc(N2CCCCC2)cc1-c1nc2ccccc2s1 [Compound 11d]	–	–	–	–	–	–	–	IC50 [1]: > 20 µM
Oc1ccc(N2CCOCC2)cc1-c1nc2ccccc2s1 [Compound 11e]	–	–	–	–	–	–	–	IC50 [1]: > 50 µM
Oc1ccc(N2CCCC2)cc1-c1nc2ccccc2s1 [Compound 11f]	–	–	–	–	–	–	–	IC50 [1]: 4.4 ± 1.8 µM

Compound	inhibition at 100 µM [1, 6] [%]	inhibition at 100 µM [2] [%]	logP [3]	logD [3]	pKa ([4]; pKa)	pKa ([4]; pKa (pKa,1))	%inhib Endo (PAN) [5]	other results
Oc1ccc(-c2ccoc2)cc1-c1nc2ccccc2s1 [Compound 11g]	–	–	–	–	–	–	–	IC50 [1]: 6.9 ± 2.8 µM
COC(=O)c1ccccc1NS(C)(=O)=O [Compound 12]	–	12	–	–	–	–	33 (11) %	inhibition at 100 µM [1]: 18%; logD [3, 7]: 1.49; logP [3, 8]: 1.51; pKa [4, 9]: 8.86
COC(=O)c1cccc2oc(=O)[nH]c12 [Compound 13]	31	0	1.24	1.22	–	8.78	46 (7) %	–
COC(=O)c1cccc2nc[nH]c12 [Compound 14]	19	7	1.73	1.73	12.3	4.51	37 (5) %	–
COC(=O)c1cccc2nn[nH]c12 [Compound 15]	22	0	1.31	1.21	–	7.96	42 (6) %	–
CONC(=O)c1ccccc1NS(C)(=O)=O [Compound 16]	16	0	0.12	-0.33	11.3	7.15	44 (6) %	–
CONC(=O)c1cccc2oc(=O)[nH]c12 [Compound 17]	33	0	0.4	0.18	12.5	7.58	23 (6) %	–
CONC(=O)c1cccc2nc[nH]c12 [Compound 18]	20	0	0.05	0.01	8.4	4.23	22 (7) %	pKa ([4]; pKa (third printed value)): > 12
CONC(=O)c1cccc2nn[nH]c12 [Compound 19]	17	0	0.75	0.22	9.93	6.99	31 (7) %	–
CS(=O)(=O)Nc1ccccc1-c1nnn[nH]1 [Compound 20]	–	3	–	–	–	–	43 (4) %	inhibition at 100 µM [1]: 10%; logD [3, 7]: -0.43; logP [3, 8]: 1.18; pKa ([4]; potentiometric, 0.15 M KCl, triplicate, read-out: pKa): 9.52; pKa [4, 9]: 3.62
O=c1[nH]c2c(-c3nnn[nH]3)cccc2o1 [Compound 21]	39	0	–	–	–	–	0%	–
c1cc(-c2nnn[nH]2)c2[nH]cnc2c1 [Compound 22]	50	74	–	–	–	–	–	–
OC1(c2cccc3nc[nH]c23)COC1 [Compound 23]	10	4	–	–	–	–	22 (8) %	–
OC1(c2cccc3nn[nH]c23)COC1 [Compound 24]	19	0	–	–	–	–	32 (8) %	–
CS(=O)(=O)Nc1ccccc1-c1ncccn1 [Compound 25]	19	0	–	–	–	–	21 (8) %	–
